Test results reported in US8138168B1 (Takeda Pharmaceutical Company Limited, priority 2007, dated 2012).

Each molecule was assayed against T1, Recombinant human renin (Homo sapiens, UniProt P00797) (assay: In vitro enzymatic activity assay of renin inhibitors (fluorogenic peptide substrate)). Settings: read-out: IC50 of Exemplified Compounds Against Renin.
T1 construct: isolate the active form (residues 67-406); made in house; host or cells: FreeStyle 293-F cells (transient expression of pcDNA3.1(+)/hREN)
T1 sequence (P00797 67-406): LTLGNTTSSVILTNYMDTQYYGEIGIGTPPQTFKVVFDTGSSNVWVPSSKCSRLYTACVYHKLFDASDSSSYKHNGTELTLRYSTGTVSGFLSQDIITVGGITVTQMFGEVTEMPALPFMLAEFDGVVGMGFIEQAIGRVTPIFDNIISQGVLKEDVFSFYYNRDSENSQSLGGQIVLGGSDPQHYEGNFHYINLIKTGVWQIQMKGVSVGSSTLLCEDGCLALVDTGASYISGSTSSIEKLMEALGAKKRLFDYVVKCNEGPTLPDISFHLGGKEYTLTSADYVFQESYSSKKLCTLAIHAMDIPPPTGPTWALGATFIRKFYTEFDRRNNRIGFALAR
Format: biochemical
How it was run: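 Recombinant human renin (3 nM final) pre-incubated 10 min at 37 °C with compounds in pH 7.4 Hepes/EDTA/DTT/0.1 mg/mL BSA/Brij35 buffer (optionally plus 2% BSA), 5% DMSO final; fluorogenic QXL520/HiLyteFluo488 peptide substrate added.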

SMILES | IC50 [nM]
COCCCn1c([C@@H]2CCCN(C(=O)C[C@H](N)CNS(=O)(=O)c3c(Cl)cccc3Cl)C2)nc2ccccc21 [Compound 290, N-((S)-2-amino-4-((R)-3-(1-(3-methoxypropyl)-1H-benzo[d]imidazol-2-yl)piperidin-1-yl)-4-oxobutyl)-2,6-dichlorobenzenesulfonamide] | 100 to 1000
COCCCn1c([C@@H]2CCCN(C(=O)C[C@H](N)CNC(=O)Nc3ccccc3-c3ccccc3)C2)nc2ccccc21 [Compound 291, 1-((S)-2-amino-4-((R)-3-(1-(3-methoxypropyl)-1H-benzo[d]imidazol-2-yl)piperidin-1-yl)-4-oxobutyl)-3-(biphenyl-2-yl)urea] | 100 to 1000
COCCCn1c([C@@H]2CCCN(C(=O)C[C@H](N)CNC(=O)Nc3ccc(OC)cc3C)C2)nc2ccccc21 [Compound 292, 1-((S)-2-amino-4-((R)-3-(1-(3-methoxypropyl)-1H-benzo[d]imidazol-2-yl)piperidin-1-yl)-4-oxobutyl)-3-(4-methoxy-2-methylphenyl)urea] | 100 to 1000
COCCCn1c([C@@H]2CCCN(C(=O)C[C@H](N)CNC(=O)c3ccc(C)c(C)c3)C2)nc2ccccc21 [Compound 293, N-((S)-2-amino-4-((R)-3-(1-(3-methoxypropyl)-1H-benzo[d]imidazol-2-yl)piperidin-1-yl)-4-oxobutyl)-3,4-dimethylbenzamide] | 100 to 1000
CCOC(=O)c1ccc(-c2ccc(C(=O)NC[C@@H](N)CC(=O)N3CCC[C@@H](c4nc5ccccc5n4CCCOC)C3)o2)cc1 [Compound 294, ethyl 4-(5-((S)-2-amino-4-((R)-3-(1-(3-methoxypropyl)-1H-benzo[d]imidazol-2-yl)piperidin-1-yl)-4-oxobutylcarbamoyl)furan-2-yl)benzoate] | 100 to 1000
COCCCn1c([C@@H]2CCCN(C(=O)C[C@H](N)CNC(=O)c3ccc(-c4cc(Cl)cc(Cl)c4)o3)C2)nc2ccccc21 [Compound 295, N-((S)-2-amino-4-((R)-3-(1-(3-methoxypropyl)-1H-benzo[d]imidazol-2-yl)piperidin-1-yl)-4-oxobutyl)-5-(3,5-dichlorophenyl)furan-2-carboxamide] | 100 to 1000
COCCCn1c([C@@H]2CCCN(C(=O)C[C@H](N)CNC(=O)c3ccc(-c4cccc(Cl)c4)o3)C2)nc2ccccc21 [Compound 296, N-((S)-2-amino-4-((R)-3-(1-(3-methoxypropyl)-1H-benzo[d]imidazol-2-yl)piperidin-1-yl)-4-oxobutyl)-5-(3-chlorophenyl)furan-2-carboxamide] | 100 to 1000
COCCCn1c([C@@H]2CCCN(C(=O)C[C@H](N)CNC(=O)c3ccc(-c4cccc([N+](=O)[O-])c4)o3)C2)nc2ccccc21 [Compound 297, N-((S)-2-amino-4-((R)-3-(1-(3-methoxypropyl)-1H-benzo[d]imidazol-2-yl)piperidin-1-yl)-4-oxobutyl)-5-(3-nitrophenyl)furan-2-carboxamide] | 100 to 1000
COCCCn1c([C@@H]2CCCN(C(=O)C[C@H](N)CNC(=O)c3cccc(Cl)c3)C2)nc2ccccc21 [Compound 298, N-((S)-2-amino-4-((R)-3-(1-(3-methoxypropyl)-1H-benzo[d]imidazol-2-yl)piperidin-1-yl)-4-oxobutyl)-3-chlorobenzamide] | 100 to 1000
COCCCn1c([C@@H]2CCCN(C(=O)C[C@H](N)CNC(=O)c3cccnc3Oc3ccccc3)C2)nc2ccccc21 [Compound 299, N-((S)-2-amino-4-((R)-3-(1-(3-methoxypropyl)-1H-benzo[d]imidazol-2-yl)piperidin-1-yl)-4-oxobutyl)-2-phenoxynicotinamide] | 100 to 1000
COCCCn1c([C@@H]2CCCN(C(=O)C[C@H](N)CNS(=O)(=O)c3cccc(Cl)c3)C2)nc2ccccc21 [Compound 300, N-((S)-2-amino-4-((R)-3-(1-(3-methoxypropyl)-1H-benzo[d]imidazol-2-yl)piperidin-1-yl)-4-oxobutyl)-3-chlorobenzenesulfonamide] | 100 to 1000
